# In patent US9469650B2, “Melampomagnolide B derivatives” (BOARD OF TRUSTEES OF THE UNIVERSITY OF ARKANSAS, priority 2013, dated 2016):
# Columns and labels:
# MALME-3M = assay: panel of 60 human tumor cell lines, growth inhibition (Melanoma); conditions: MALME-3M
# RPMI-8226 = assay: panel of 60 human tumor cell lines, growth inhibition (Leukemia); conditions: RPMI-8226
# KM12 = assay: panel of 60 human tumor cell lines, growth inhibition (Colon Cancer); conditions: KM12
structure (smiles),measurement,setting,value
C=C1C(=O)O[C@H]2[C@H]1CC/C(COC(=O)NC)=C\CC[C@@]1(C)O[C@@H]21 [JVM 2-57],CC50,CCRF-CEM,76.3 µM
same,CC50,K-562,> 100 µM
same,CC50,MOLT-4,> 100 µM
same,CC50,SR,> 100 µM
same,CC50,A549/ATCC,57.7 µM
same,CC50,HOP-62,59.5 µM
same,CC50,HOP-92,29.7 µM
same,CC50,NCI-H226,96.1 µM
same,CC50,NCI-H23,66.1 µM
same,CC50,NCI-H460,78 µM
same,CC50,NCI-H522,6.85 µM
same,CC50,HCC-2998,61.6 µM
same,CC50,HCT-15,41.8 µM
same,CC50,HT29,57 µM
same,CC50,SW-620,44.7 µM
same,CC50,SF-268,68.6 µM
same,CC50,SF-295,> 100 µM
same,CC50,SNB-75,> 100 µM
same,CC50,U251,53 µM
same,CC50,LOX IMVI,43.2 µM
same,CC50,MDA-MB-435,53.1 µM
same,CC50,SK-MEL-28,52 µM
same,CC50,SK-MEL-5,66 µM
same,CC50,UACC-257,44.1 µM
same,CC50,UACC-62,50.5 µM
same,CC50,IGROV1,77 µM
same,CC50,OVCAR-5,44.3 µM
same,CC50,OVCAR-8,57.2 µM
same,CC50,NCI/ADR-RES,> 100 µM
same,CC50,SK-OV-3,> 100 µM
same,CC50,786-0,49.6 µM
same,CC50,A498,47.4 µM
same,CC50,CAKI-1,36.6 µM
same,CC50,TK-10,31.8 µM
same,CC50,UO-31,36.9 µM
same,CC50,PC-3,71.1 µM
same,CC50,MDA-MB-231/ATCC,56.2 µM
same,CC50,HS 578T,> 100 µM
same,CC50,T-47D,40.2 µM
same,Percent Growth,MALME-3M; Log10 Concentration −4.0,−76%
same,Percent Growth,MALME-3M; Log10 Concentration −5.0,25%
same,Percent Growth,MALME-3M; Log10 Concentration −6.0,94%
same,Percent Growth,MALME-3M; Log10 Concentration −7.0,95%
same,Percent Growth,MALME-3M; Log10 Concentration −8.0,95%
same,GI50,MALME-3M; NCI five dose,4380 nM
same,TGI,MALME-3M; NCI five dose,1.77E−5
same,Percent Growth,RPMI-8226; Log10 Concentration −4.0,−53%
same,Percent Growth,RPMI-8226; Log10 Concentration −5.0,7%
same,Percent Growth,RPMI-8226; Log10 Concentration −6.0,87%
same,Percent Growth,RPMI-8226; Log10 Concentration −7.0,94%
same,Percent Growth,RPMI-8226; Log10 Concentration −8.0,101%
same,GI50,RPMI-8226; NCI five dose,2890 nM
same,TGI,RPMI-8226; NCI five dose,1.30E−5
same,Percent Growth,KM12; Log10 Concentration −4.0,−92%
same,Percent Growth,KM12; Log10 Concentration −5.0,73%
same,Percent Growth,KM12; Log10 Concentration −6.0,99%
same,Percent Growth,KM12; Log10 Concentration −7.0,97%
same,Percent Growth,KM12; Log10 Concentration −8.0,98%
same,GI50,KM12; NCI five dose,13.8 µM
same,TGI,KM12; NCI five dose,2.78E−5
C=C1C(=O)O[C@H]2[C@H]1CC/C(COC(=O)N1CCC(F)(F)CC1)=C\CC[C@@]1(C)O[C@@H]21 [JVM 2-66],CC50,CCRF-CEM,67.6 µM
same,CC50,K-562,> 100 µM
same,CC50,MOLT-4,> 100 µM
same,CC50,SR,> 100 µM
same,CC50,A549/ATCC,66.2 µM
same,CC50,HOP-62,58.3 µM
same,CC50,HOP-92,11.1 µM
same,CC50,NCI-H226,10.9 µM
same,CC50,NCI-H23,48.2 µM
same,CC50,NCI-H460,72.6 µM
same,CC50,NCI-H522,6.08 µM
same,CC50,HCC-2998,57.9 µM
same,CC50,HCT-15,10 µM
same,CC50,HT29,40.3 µM
same,CC50,SW-620,17.9 µM
same,CC50,SF-268,56.5 µM
same,CC50,SF-295,51.5 µM
same,CC50,SNB-75,47.2 µM
same,CC50,U251,52.1 µM
same,CC50,LOX IMVI,22.5 µM
same,CC50,MDA-MB-435,95.1 µM
same,CC50,SK-MEL-28,33 µM
same,CC50,SK-MEL-5,40.3 µM
same,CC50,UACC-257,36.5 µM
same,CC50,UACC-62,23.2 µM
same,CC50,IGROV1,59.7 µM
same,CC50,OVCAR-5,48.1 µM
same,CC50,OVCAR-8,38.5 µM
same,CC50,NCI/ADR-RES,69.5 µM
same,CC50,SK-OV-3,63.8 µM
same,CC50,786-0,48.6 µM
same,CC50,A498,28.9 µM
same,CC50,CAKI-1,23.8 µM
same,CC50,TK-10,23.5 µM
same,CC50,UO-31,22.2 µM
same,CC50,PC-3,53.8 µM
same,CC50,MDA-MB-231/ATCC,30.7 µM
same,CC50,HS 578T,> 100 µM
same,CC50,T-47D,> 100 µM
same,GI50,MALME-3M,1900 nM
same,TGI,MALME-3M,4.82E−6
same,Percent Growth,MALME-3M; Log10 Concentration −4.0,−72%
same,Percent Growth,MALME-3M; Log10 Concentration −5.0,−39%
same,Percent Growth,MALME-3M; Log10 Concentration −6.0,84%
same,Percent Growth,MALME-3M; Log10 Concentration −7.0,91%
same,Percent Growth,MALME-3M; Log10 Concentration −8.0,99%
same,GI50,RPMI-8226,1980 nM
same,TGI,RPMI-8226,5.83E−6
same,Percent Growth,RPMI-8226; Log10 Concentration −4.0,−46%
same,Percent Growth,RPMI-8226; Log10 Concentration −5.0,−25%
same,Percent Growth,RPMI-8226; Log10 Concentration −6.0,81%
same,Percent Growth,RPMI-8226; Log10 Concentration −7.0,97%
same,Percent Growth,RPMI-8226; Log10 Concentration −8.0,98%
same,GI50,KM12,8.55 µM
same,TGI,KM12,2.26E−5
same,Percent Growth,KM12; Log10 Concentration −4.0,−85%
same,Percent Growth,KM12; Log10 Concentration −5.0,46%
same,Percent Growth,KM12; Log10 Concentration −6.0,99%
same,Percent Growth,KM12; Log10 Concentration −7.0,97%
same,Percent Growth,KM12; Log10 Concentration −8.0,103%
C=C1C(=O)O[C@H]2[C@H]1CC/C(COC(=O)CCC(=O)N1CCC(C)CC1)=C\CC[C@@]1(C)O[C@@H]21 [JVM 2-70],CC50,CCRF-CEM,58.6 µM
same,CC50,K-562,> 100 µM
same,CC50,MOLT-4,> 100 µM
same,CC50,SR,> 100 µM
same,CC50,A549/ATCC,75.9 µM
same,CC50,HOP-62,74.9 µM
same,CC50,HOP-92,36.4 µM
same,CC50,NCI-H226,76.1 µM
same,CC50,NCI-H23,64.3 µM
same,CC50,NCI-H460,89.4 µM
same,CC50,NCI-H522,5.99 µM
same,CC50,HCC-2998,61 µM
same,CC50,HCT-15,32.6 µM
same,CC50,HT29,44.5 µM
same,CC50,SW-620,42.6 µM
same,CC50,SF-268,69.1 µM
same,CC50,SF-295,71 µM
same,CC50,SNB-75,57 µM
same,CC50,U251,59.7 µM
same,CC50,LOX IMVI,41 µM
same,CC50,MDA-MB-435,61.9 µM
same,CC50,SK-MEL-28,44.5 µM
same,CC50,SK-MEL-5,47.8 µM
same,CC50,UACC-257,47 µM
same,CC50,UACC-62,49.5 µM
same,CC50,IGROV1,94 µM
same,CC50,OVCAR-5,49.9 µM
same,CC50,OVCAR-8,42.9 µM
same,CC50,NCI/ADR-RES,96 µM
same,CC50,SK-OV-3,> 100 µM
same,CC50,786-0,58 µM
same,CC50,A498,45.2 µM
same,CC50,CAKI-1,36.2 µM
same,CC50,TK-10,36.3 µM
same,CC50,UO-31,46.9 µM
same,CC50,PC-3,69.1 µM
same,CC50,MDA-MB-231/ATCC,52.8 µM
same,CC50,HS 578T,> 100 µM
same,CC50,T-47D,> 100 µM
same,Percent Growth,MALME-3M; Log10 Concentration −4.0,−67%
same,Percent Growth,MALME-3M; Log10 Concentration −5.0,−5%
same,Percent Growth,MALME-3M; Log10 Concentration −6.0,99%
same,Percent Growth,MALME-3M; Log10 Concentration −7.0,108%
same,Percent Growth,MALME-3M; Log10 Concentration −8.0,106%
same,GI50,MALME-3M; NCI five dose,2950 nM
same,TGI,MALME-3M; NCI five dose,8.96E−5
same,Percent Growth,RPMI-8226; Log10 Concentration −4.0,−34%
same,Percent Growth,RPMI-8226; Log10 Concentration −5.0,28%
same,Percent Growth,RPMI-8226; Log10 Concentration −6.0,96%
same,Percent Growth,RPMI-8226; Log10 Concentration −7.0,98%
same,Percent Growth,RPMI-8226; Log10 Concentration −8.0,101%
same,GI50,RPMI-8226; NCI five dose,4740 nM
same,TGI,RPMI-8226; NCI five dose,2.82E−5
same,Percent Growth,KM12; Log10 Concentration −4.0,−87%
same,Percent Growth,KM12; Log10 Concentration −5.0,62%
same,Percent Growth,KM12; Log10 Concentration −6.0,98%
same,Percent Growth,KM12; Log10 Concentration −7.0,102%
same,Percent Growth,KM12; Log10 Concentration −8.0,102%
same,GI50,KM12; NCI five dose,12.1 µM
same,TGI,KM12; NCI five dose,2.61E−5
